Measurements: US20060154323A1, “Method for obtaining dynamic and structural data pertaining to proteins and protein/ligand complexes” (ProSpect Pharma, priority 2002, published 2006)

Tests used:
MUP [1] = target: T1, MUP (Mus musculus, UniProt P11588); test: Binding of small hydrophobic ligands to MUP (Kd)
T1 construct: made in house; host or cells: E. coli M15 cells with vector pqe30 MUP
T1 sequence (P11588 19-180): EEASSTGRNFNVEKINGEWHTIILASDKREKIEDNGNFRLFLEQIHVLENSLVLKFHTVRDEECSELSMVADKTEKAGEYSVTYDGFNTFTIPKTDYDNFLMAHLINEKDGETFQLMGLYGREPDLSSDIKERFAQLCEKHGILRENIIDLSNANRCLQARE

Mouse Urinary Protein = target: T2, Mouse Urinary Protein (Mus musculus, UniProt P11588); test: 13C NMR relaxation (T1, T2) of valine 13CHD2-labeled MUP in absence and presence of ligand; conditions: for T1, Change / T2, Change: Protein vs Bound Protein; for T1, Bound Protein / T2, Bound Protein: 298 K;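 as to T1, Bound Protein: unit milliseconds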;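 as to T2, Bound Protein: unit milliseconds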
T2 construct: made in house; host or cells: E. coli M15 cells with vector pqe30 MUP
T2 sequence (P11588 19-180): T1 sequence (P11588 19-180)
Experimental: A 15 mg sample of L-valine-α-D-^12CD(^13CHD2)2 labeled MUP was dissolved in 650 μL phosphate buffered saline (10 mM potassium phosphate; 200 mM sodium chloride), to which was added 50 μL deuterium oxide. ^13C Relaxation rates (R2 and R1) of ^13CHD2 groups were determined using pulse sequences as described in Ishima et al., J. Am. Chem. Soc. 121:11589-11590 (1999). Spectral parameters were as follows: spectral width in the ^13C dimension, 900 Hz; spectral width in the ^1H dimension, 5200 Hz; number of real data points in the ^13C dimension, 128; number of real points in the ^1H dimension, 1408; number of transients per t1 increment, 8; probe temperature, 298 K. Prior to two-dimensional Fourier transformation, free induction decays were apodized with cosine-bell windowing functions according to known methods.
The NMR analysis was then repeated following addition of the small molecule ligand 1 μL of isobutyl pyrazine or 1 μL of isopropyl pyrazine to separate solutions of MUP. The data shown below in Tables I and II and in FIG. 8 were obtained, clearly showing the changes in T1 and T2 values obtained on addition of these small molecule ligands.

Major Urinary Protein = target: T3, Major Urinary Protein (Mus musculus, UniProt P11588); test: S2axis order parameters of valine methyl groups from 600 MHz 13C R1/R2 relaxation of valine-enriched MUP and its complexes; conditions: for S^2axis: MUP-ligand complex, 600 MHz, 30° C., pH 7.0
T3 construct: made in house; host or cells: E. coli M15 cells with vector pqe30 MUP
T3 sequence (P11588 19-180): T1 sequence (P11588 19-180)
Experimental: Samples of [^13C^γ1,^γ2HD2]-U-^2H valine enriched MUP both alone and complexed with 2-methoxy-3-isopropylpyrazine and 2-methoxy-3-isobutylpyrazine were prepared from a single sample at pH 7.0 and a protein concentration of 1 mM. A further sample of methyl-^13C, ^2H enriched MUP was prepared at pH 7.0 and a protein concentration of 0.5 mM. Longitudinal (R1) and transverse (R2) ^13C relaxation rates were determined essentially as described by Ishima et al., J. Am. Chem. Soc. 121:11589-11590, 1999. All spectra were recorded at a proton frequency of 600 MHz and a probe temperature of 30° C. R1 rates were determined with relaxation delay times of 16, 64, 128, 240, 400, 720, 1120, 1600, 2240 and 2880 milliseconds. R2 rates were determined with relaxation delay times of 16, 32, 48, 64, 96, 160, 192, 240 and 288 milliseconds, and an effective field strength of 2 kHz. Relaxation data were fit to a single exponential decay function I=I0exp(−tR), where I0 is the initial resonance intensity, t is the relaxation delay time and R is the relaxation rate (R1 or R2). Relaxation data were fitted to the Lipari-Szabo model-free spectral density of the form: J(ω)=S^2τm/(1+ω^2τ^2m)+(1−S^2)τi/(1+ω^2τi^2), where τi^−1=τM^−1+τe^−1, τM is the overall molecular tumbling correlation time and τe is the effective internal correlation time. See Lipari and Szabo, J. Am. Chem. Soc. 104:4546-4559, 1982. This equation is valid for fast internal motions, τe<<τM, under which conditions the order parameter for methyl CH dipolar relaxation is given by S^2=Saxis^2[P2(cos θH]^2. Saxis^2 is the order parameter of the methyl rotation axis and θH is the angle made by the axis and the CH bond vector. A global rotational correlation time of […] was used for these calculations, according to the previously reported value. Zidek et al., Nature Str. Biol. 6:1118-1121, 1999. Although the valine residues were perdeuterated at non-methyl positions, the protein was otherwise protonated, and dipolar relaxation due to these “external” protons is not negligible for ^13C relaxation. Thus, by analogy with the work of Ishima et al. J. Am. Chem. Soc. 123:6164-6171, 2001, the contribution of these external protons to ^13C R2 values was estimated at 25% from the X-ray coordinates of MUP. Consequently, measured ^13C R^2 rates were multiplied by 0.75 to account for these external dipolar relaxation processes.

MUP [2] = target: T1, MUP; test: 13C-1H HSQC spectra of valine-enriched MUP complexes; conditions: 13C-1H HSQC of complexes with valine-enriched MUP
[3] = valine methyl 59.HG1 (first line)
[4] = valine methyl 59.HG1 (second line)

`COc1nccnc1C(C)C` [2-methoxy-3-isopropylpyrazine] was tested, and the Kd (MUP [1]) was 560 nM, the “T1, Change” value (Mouse Urinary Protein; 12.HG1) was −8.387 milliseconds and the “T2, Change” value (Mouse Urinary Protein; 12.HG1) was −8.329 milliseconds. The “T1, Change” value (Mouse Urinary Protein; 12.HG2) was −40.959 milliseconds, the “T2, Change” value (Mouse Urinary Protein; 12.HG2) was −9.198 milliseconds and the “T1, Change” value (Mouse Urinary Protein; 47.HG1) was 2.421 milliseconds. The “T2, Change” value (Mouse Urinary Protein; 47.HG1) was −13.342 milliseconds, the “T1, Change” value (Mouse Urinary Protein; 47.HG2) was −76.984 milliseconds and the “T2, Change” value (Mouse Urinary Protein; 47.HG2) was −4.561 milliseconds. The “T1, Change” value (Mouse Urinary Protein; 53.HG1) was −50.272 milliseconds, the “T2, Change” value (Mouse Urinary Protein; 53.HG1) was −14.174 milliseconds and the “T1, Change” value (Mouse Urinary Protein; 53.HG2) was 8.962 milliseconds. The “T2, Change” value (Mouse Urinary Protein; 53.HG2) was −7.866 milliseconds, the “T1, Change” value (Mouse Urinary Protein; 59.HG1 (first line)) was −91.665 milliseconds and the “T2, Change” value (Mouse Urinary Protein; 59.HG1 (first line)) was −16.574 milliseconds. For the same compound, the “T1, Change” value (Mouse Urinary Protein; 59.HG1 (second line)) was −49.656 milliseconds, the “T2, Change” value (Mouse Urinary Protein; 59.HG1 (second line)) was −6.181 milliseconds and the “T1, Change” value (Mouse Urinary Protein; 70.HG1) was 209.318 milliseconds. For the same compound, the “T2, Change” value (Mouse Urinary Protein; 70.HG1) was −41.741 milliseconds, the “T1, Change” value (Mouse Urinary Protein; 70.HG2) was 86.431 milliseconds and the “T2, Change” value (Mouse Urinary Protein; 70.HG2) was 11.930 milliseconds. For the same compound, the “T1, Change” value (Mouse Urinary Protein; 82.HG1) was −10.201 milliseconds, the “T2, Change” value (Mouse Urinary Protein; 82.HG1) was 10.857 milliseconds and the “T1, Change” value (Mouse Urinary Protein; 82.HG2) was 0.991 milliseconds. For the same compound, the “T2, Change” value (Mouse Urinary Protein; 82.HG2) was 19.924 milliseconds, the “contribution of valine side-chains to the entropy of binding” value (Mouse Urinary Protein; from relaxation data in the presence of ligand) was “do not contribute significantly” and the “T1, Bound Protein” value (Mouse Urinary Protein; valine methyl 12.HG1) was 1733.309 milliseconds. The “T2, Bound Protein” value (Mouse Urinary Protein; valine methyl 12.HG1) was 161.437 milliseconds, the “T1, Bound Protein” value (Mouse Urinary Protein; valine methyl 12.HG2) was 1509.370 milliseconds and the “T2, Bound Protein” value (Mouse Urinary Protein; valine methyl 12.HG2) was 192.512 milliseconds. For the same compound, the “T1, Bound Protein” value (Mouse Urinary Protein; valine methyl 47.HG1) was 1626.298 milliseconds, the “T2, Bound Protein” value (Mouse Urinary Protein; valine methyl 47.HG1) was 168.574 milliseconds and the “T1, Bound Protein” value (Mouse Urinary Protein; valine methyl 47.HG2) was 1067.605 milliseconds. For the same compound, the “T2, Bound Protein” value (Mouse Urinary Protein; valine methyl 47.HG2) was 155.315 milliseconds, the “T1, Bound Protein” value (Mouse Urinary Protein; valine methyl 53.HG1) was 2283.543 milliseconds and the “T2, Bound Protein” value (Mouse Urinary Protein; valine methyl 53.HG1) was 177.873 milliseconds. The “T1, Bound Protein” value (Mouse Urinary Protein; valine methyl 53.HG2) was 1355.764 milliseconds, the “T2, Bound Protein” value (Mouse Urinary Protein; valine methyl 53.HG2) was 158.149 milliseconds and the “T1, Bound Protein” value (Mouse Urinary Protein; [3]) was 1374.428 milliseconds. The “T2, Bound Protein” value (Mouse Urinary Protein; [3]) was 195.222 milliseconds, the “T1, Bound Protein” value (Mouse Urinary Protein; [4]) was 1572.793 milliseconds and the “T2, Bound Protein” value (Mouse Urinary Protein; [4]) was 153.897 milliseconds. For the same compound, the “T1, Bound Protein” value (Mouse Urinary Protein; valine methyl 70.HG1) was 1872.254 milliseconds, the “T2, Bound Protein” value (Mouse Urinary Protein; valine methyl 70.HG1) was 162.943 milliseconds and the “T1, Bound Protein” value (Mouse Urinary Protein; valine methyl 70.HG2) was 1077.097 milliseconds. The “T2, Bound Protein” value (Mouse Urinary Protein; valine methyl 70.HG2) was 150.103 milliseconds, the “T1, Bound Protein” value (Mouse Urinary Protein; valine methyl 82.HG1) was 925.102 milliseconds and the “T2, Bound Protein” value (Mouse Urinary Protein; valine methyl 82.HG1) was 213.526 milliseconds. The “T1, Bound Protein” value (Mouse Urinary Protein; valine methyl 82.HG2) was 668.810 milliseconds, the “T2, Bound Protein” value (Mouse Urinary Protein; valine methyl 82.HG2) was 203.529 milliseconds and the “changes in Saxis^2 of the six valine residues in MUP upon binding” value (Major Urinary Protein) was “only minor changes”. For the same compound, the “S^2axis” value (Major Urinary Protein; Val-12 C^γ1) was 0.90, the “S^2axis” value (Major Urinary Protein; Val-12 C^γ2) was 0.69 and the “S^2axis” value (Major Urinary Protein; Val-47 C^γ1) was 0.84. The “S^2axis” value (Major Urinary Protein; Val-47 C^γ2) was 0.90, the “S^2axis” value (Major Urinary Protein; Val-53 C^γ1) was 0.80 and the “S^2axis” value (Major Urinary Protein; Val-53 C^γ2) was 0.85. The “S^2axis” value (Major Urinary Protein; Val-59 C^γ1) was 0.68, the “S^2axis” value (Major Urinary Protein; Val-59 C^γ2) was 0.86 and the “S^2axis” value (Major Urinary Protein; Val-70 C^γ1) was 0.85. For the same compound, the “S^2axis” value (Major Urinary Protein; Val-70 C^γ2) was 0.77, the “S^2axis” value (Major Urinary Protein; Val-82 C^γ1) was 0.50 and the “S^2axis” value (Major Urinary Protein; Val-82 C^γ2) was 0.48. For the same compound, the “contribution of valine side-chains to the entropy of binding” value (Major Urinary Protein; from computations of Saxis^2 values, free protein and complexes) was “do not contribute significantly” and the “shift perturbations of Val 82 γ1 and γ2 correlations” value (MUP [2]) was “Significant shift perturbations”.
